From BindingDB's records for patent US10010539 (Merck Sharp & Dohme, 2018)

Molecular target: T1, Orexin receptor type 2 (Homo sapiens, UniProt O43614)
T1 sequence (O43614 whole entry): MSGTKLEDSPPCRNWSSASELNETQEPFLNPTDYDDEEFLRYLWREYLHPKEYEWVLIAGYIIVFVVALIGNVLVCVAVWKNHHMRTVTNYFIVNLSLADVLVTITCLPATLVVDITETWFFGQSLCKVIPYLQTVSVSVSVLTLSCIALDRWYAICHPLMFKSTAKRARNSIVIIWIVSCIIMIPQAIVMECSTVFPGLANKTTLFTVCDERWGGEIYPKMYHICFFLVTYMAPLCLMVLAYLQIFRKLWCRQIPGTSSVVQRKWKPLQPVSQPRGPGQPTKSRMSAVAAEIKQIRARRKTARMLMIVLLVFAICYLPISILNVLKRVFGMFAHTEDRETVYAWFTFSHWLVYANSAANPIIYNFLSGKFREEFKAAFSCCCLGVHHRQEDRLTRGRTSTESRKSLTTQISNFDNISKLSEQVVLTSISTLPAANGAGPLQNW
Test: FLIPR Ca2+ Flux Assay
Method: For intracellular calcium measurements, Chinese hamster ovary (CHO) cells expressing the rat orexin-1 receptor or the human orexin-2 receptor, are grown in Iscove's modified DMEM containing 2 mM L-glutamine, […], 1% hypoxanthine-thymidine supplement, 100 U/ml penicillin, 100 μg/ml streptomycin and 10% heat-inactivated fetal calf serum (FCS). The cells are seeded at 20,000 cells/well into Becton-Dickinson black 384-well clear bottom sterile plates coated with poly-D-lysine. All reagents were from GIBCO-Invitrogen Corp. The seeded plates are incubated overnight at 37° C. and 5% CO2. Ala-6,12 human orexin-A as the agonist is prepared as a 1 mM stock solution in 1% bovine serum albumin (BSA) and diluted in assay buffer (HBSS containing 20 mM HEPES, 0.1% BSA and 2.5 mM probenecid, pH7.4) for use in the assay at a final concentration of 70 pM. […] Within the Fluorescent Imaging Plate Reader (FLIPR, Molecular Devices), test compounds are added to the plate in a volume of 25 μl, incubated for 5 min and finally 25 μl of agonist is added. Fluorescence is measured for each well at 1 second intervals for 5 minutes and the height of each fluorescence peak is compared to the height of the fluorescence peak induced by 70 pM Ala-6,12 orexin-A with buffer in place of antagonist.

Row | Structure (SMILES) | IC50 [nM]
1 | CCOc1ccccc1C(=O)N1C[C@H](n2ncc(C(C)(C)O)n2)CC[C@H]1C [US10010539, 12] | 31.3
2 | CC(C)Oc1ncccc1C(=O)N1C[C@H](n2ncc(C(C)(C)O)n2)CC[C@H]1C [US10010539, 15] | 32.6
